Assay results as given in ChEMBL document CHEMBL1159222, “Varacin and three new marine antimicrobial polysulfides from the far-eastern ascidian Polycitor sp” (1995).

Assays:
Format in all cases: functional
Conditions in all cases: read-out: IZ
Candida albicans [1] = experiment: Antifungal activity against Candida albicans at 10 ug
Candida albicans [2] = experiment: Antifungal activity against Candida albicans at 0.1 ug
Bacillus subtilis [3] = experiment: Antibacterial activity against Bacillus subtilis at 0.1 ug
Bacillus subtilis [4] = experiment: Antibacterial activity against Bacillus subtilis at 1 ug

SMILES	zone of inhibition at 10 µg/disc (Candida albicans [1]) [mm]	zone of inhibition at 0.1 µg/disc (Candida albicans [2]) [mm]	zone of inhibition at 0.1 µg/disc (Bacillus subtilis [3]) [mm]	zone of inhibition at 1 µg/disc (Bacillus subtilis [4]) [mm]
COc1cc(CCNC(C)=O)c2c(c1OC)SSS2 [VARACIN A ACETATE]	20	–	–	–
COc1cc(CCNC(C)=O)c2c(c1OC)SSSSS2 [VARACIN ACETATE]	20	–	–	–
COc1cc(CCNC(C)=O)c2c(c1OC)[S+]([O-])SS2 (configuration not stated) [VARACIN B ACETATE]	20	–	–	–
COc1cc(CCNC(C)=O)c2c(c1OC)SS[S+]2[O-] (configuration not stated) [VARACIN C ACETATE]	20	–	–	–
COc1cc(CCN)c2c(c1OC)SSSSS2 [VARACIN]	–	20	20	20
